Data taken from patent publication US5240918A, “2-(substituted imino)-thiazolidines and process for the preparation thereof” (EGIS Gyogyszergyar, priority 1992, dated 1993).
Like-named read-outs stand apart in the source and are kept apart here.

What was measured:
[1] = Toxicity (LD50) and therapeutical index, Table II; details: mouse, in vivo
acetic acid "writhing" = experiment: Acetic acid "writhing test" on mice (analgesic effect; method of Newbould); format: in vivo; details: Mus musculus, po
Experimental: 2. Acetic acid "writhing test" on mice (analgesic effect) Method: Newbould, Brit. […] In the period between the 5th and 10th minutes following the administration of acetic acid the number of the characteristic "writhing" responses is counted for each animal and the "total writhing number" (within 5 minutes) is expressed as the percentage of the value obtained for the control animals. The mice are treated with the test compound and the carrier, respectively, orally 1 hour before the administration of acetic acid. 12 animals are used per dose.

[2] = system: experimental coronaria insufficiency induced with vasopressin; experiment: Antianginal effect (vasopressin-induced experimental coronaria insufficiency, ECG wave T; method of Nieschulz et al.); format: in vivo; details: male rats, 2 minutes prior to vasopressin; for ED50: Rattus norvegicus, iv.
Experimental: Method: the test was carried out on rats by using the method of Nieschulz, E., Popendiker, K. and Hoffmann, I. (Arzneimittel Forschung, 5, 680 /1955/).
Male rats of 180-220 g body weight were narcotized with chloralese-urethane(70-700 mg/kg ip.). The ECG was registered with needle electrodes in standard II leading. The experimental coronaria insufficiency was induced with […].). The height of wave T in ECG was measured before and after the administration of vasopressin in both the control and treated groups. Test compounds were administered intravenously 2 minutes prior to the treatment with vasopressin.

[3] = white mice, orally 1 hour before acetic acid, writhing counted 5th to 10th minutes, 12 animals per dose, read-out: ID50 (the source's name)

For `CC(=O)Oc1ccccc1C(=O)O` [Acetylsalicylic acid, reference compound], which LD50 [1] is on record?
The LD50 was 1350 mg/kg.

And the selectivity ratio [1]?
Its selectivity ratio is 5.2.

And the ED50 (acetic acid "writhing"; read-out: ID50 mg/kg)?
Its ED50 is 261 mg/kg.

With `C=CCNC(=S)N=C1SCCN1c1cc(Cl)ccc1[N+](=O)[O-]` [Example 20, 2-(N'-Allylthiocarbamoylimino)-3-(5'-chloro-2'-nitrophenyl)-thiazolidine] as the molecule, how does the ED50 [2] read?
The ED50 was 1.45 mg/kg.

What about the “Activity (2 mg/kg iv.)” value [2] of the same molecule?
The value was 78%.

Which results are given for `CC(=O)N=C1SCCN1c1ccc(Cl)cc1[N+](=O)[O-]` [Example 24, 2-Acetylimino-3-(4'-chloro-2'-nitrophenyl)-thiazolidine]?
LD50 [1]: 700 mg/kg; selectivity ratio [1]: 10.9; ED50 (acetic acid "writhing"; [3]): 37 mg/kg

What does the source list for `CC(=O)N=C1SCCN1c1ccccc1[N+](=O)[O-]` [Example 25, L-Acetylimino=3-(2-nitrophenyl)-thiazolidine]?
LD50 [1]: 2000 mg/kg; selectivity ratio [1]: 11.1; ED50 (acetic acid "writhing"; [3]): 180 mg/kg

What does the source list for `CC(=O)N=C1SCCN1c1ccc(C(F)(F)F)cc1[N+](=O)[O-]` [Example 26, 2-Acetylimino-3-(4'-trifluoromethyl-2'-nitrophenyl)-thiazolidine]?
LD50 [1]: 2000 mg/kg; selectivity ratio [1]: 11.8; ED50 (acetic acid "writhing"; [3]): 170 mg/kg

Which ED50 [2] does the source give for `N#CN=C1SCCN1c1cc(Cl)ccc1[N+](=O)[O-]` [Example 46, 2-Cyanimido-3-(5'-chloro-2'-nitrophenyl)thiazolidine] here?
Its ED50 is 1.76 mg/kg.

And the “Activity (2 mg/kg iv.)” value [2]?
The value was 62%.
